Test results as given in ChEMBL document CHEMBL4346757, “Synthesis and biological evaluation of 7-methoxy-1-(3,4,5-trimethoxyphenyl)-4,5-dihydro-2H-benzo[e]indazoles as new colchicine site inhibitors” (Bioorg Med Chem Lett, 2019).

How the values were obtained:
Tubulin = Tubulin (Bos taurus, UniProt Q6B856+Q862L2+Q862F3); assay: Inhibition of bovine brain tubulin polymerization measured every 1 min for 60 mins by turbidimetry based microplate reader analysis
COLO 205 = assay: Antiproliferative activity against human COLO205 cells assessed as reduction in cell viability by MTT assay; assay type: functional, cell-based
HCT-116 = assay: Antiproliferative activity against human HCT116 cells assessed as reduction in cell viability by MTT assay; assay type: functional, cell-based

SMILES	IC50 (Tubulin; read-out: IC50) [nM]	IC50 (COLO 205) [nM]	IC50 (HCT-116) [nM]	IC50 (Tubulin) [nM]
COc1ccc(-c2[nH]nc3c2-c2cc(OC)c(OC)c(OC)c2CC3)cc1	6600	37	–	–
COc1ccc2c(c1)CCc1nn(-c3ccccc3)c(-c3cc(OC)c(OC)c(OC)c3)c1-2	–	> 10000	5240	> 10000
COc1ccc(/C=C\c2cc(OC)c(OC)c(OC)c2)cc1O [COMBRETASTATIN A4]	–	1	1	–

Continued, values first:

IC50 (Tubulin; read-out: IC50) [nM]	IC50 (COLO 205) [nM]	IC50 (HCT-116) [nM]	IC50 (Tubulin) [nM]	SMILES
–	560	1200	> 10000	COc1ccc2c(c1)CCc1nn(CCO)c(-c3cc(OC)c(OC)c(OC)c3)c1-2
–	19	1	1500	COc1ccc2c(c1)CCc1nn(C)c(-c3cc(OC)c(OC)c(OC)c3)c1-2
–	8240	> 10000	> 10000	CCOC(=O)Cn1nc2c(c1-c1cc(OC)c(OC)c(OC)c1)-c1ccc(OC)cc1CC2
